# Assay: gradient 5% acetonitrile 3 min, to 50% in 2 min, to 85% in 15 min, held 3 min, 100 µL/min
# Conditions: column: Zorbax Extend-C18 2.1 x 50 mm; eluents: water / acetonitrile, 0.1% formic acid
# Summary of the method: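 A Zorbax Extend-C18 column (2.1 × 50 mm, 1.8 μm) run at 100 μL/min with water and acetonitrile, both containing 0.1% formic acid, separated mixtures of ~100 pure standards. The HPLC was coupled to a quadrupole time-of-flight mass spectrometer operated in positive and negative ionization mode, with dead and dwell volumes of 40 μL and 900 μL. Each retention time was taken from a computationally picked adduct peak that was then manually inspected.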
row,RP-LC retention time [s],SMILES
1,873,CCC(C)NC(=O)CSc1nccc(N2CCN(c3cc(C)ccc3C)CC2)n1 (configuration not stated)
2,963,COc1ccc(-c2nc(-c3cn(Cc4ccc(F)cc4)nn3)no2)cc1
3,670,COc1ccc(-c2nc(C)cc(C)c2CNS(=O)(=O)c2ccc(C)cc2)cc1
4,1020,Cc1ccc(-n2ccnc2SCc2nc(-c3cccc(C)c3)no2)cc1
5,571,CCCN(C)C(=O)CCC1CCN(c2cc(NCC)ncn2)CC1
6,742,CN1C/C=C/CCOc2cccc(c2)-c2ccnc(n2)Nc2cccc(c2)C1
7,724,CCN1CCCn2cc(S(=O)(=O)Nc3cccc(C)c3)cc2C1=O
8,609,CC(C)n1nnc2cc(S(=O)(=O)N3CCCC3C(=O)N3CCN(c4ccccn4)CC3)ccc21 (configuration not stated)
9,946,CCOC(=O)C1=C(C)NC(=O)NC1c1cn(-c2ccccc2)nc1-c1ccc(OCC)cc1 (configuration not stated)
10,1000,Cc1ccc(Cn2nc3ccc(S(=O)(=O)N4CCSCC4)cn3c2=O)cc1C
11,1080,CCCCOc1ccc(C(=O)NC2(c3nc(C)no3)CCCCC2)cc1
12,985,O=C(c1ccsc1)N1CCN(S(=O)(=O)c2cc(-c3noc(C4CCC4)n3)cs2)CC1
13,746,Cc1sc2ccn(C)c(=O)c2c1C(=O)N1CCN(c2ccc(F)cc2)CC1
14,1020,Cc1ccc(-c2nnc(-c3ccccc3)o2)cc1S(=O)(=O)N1CCCC1
15,678,CNC(=O)N1CCc2nc(-c3ccccc3)ncc2C1
16,796,O=C(C1=C2CCCN2c2ccccc2S1(=O)=O)N1CCN(c2ccc(F)cc2)CC1
17,991,COc1ccc(-c2ncc3c(n2)CCN(S(=O)(=O)c2ccc(OC)cc2)C3)cc1
18,961,COC(=O)c1c(C)[nH]c(C(=O)N2CCCC(C(=O)N3CCN(c4cc(C)ccc4C)CC3)C2)c1C (configuration not stated)
19,764,Cc1ccc(OCC(=O)N2C[C@@H]3C[C@H]2C[C@@H]3NS(=O)(=O)c2ccccc2)cc1
20,644,CNC(=O)C1CCCN(c2nc3ncn(CC(=O)Nc4cc(F)ccc4C)c(=O)c3s2)C1 (configuration not stated)
21,917,Cc1ccc(NC(=O)C2CCCN(c3ccc4cc(S(=O)(=O)N5CCCCC5)ccc4n3)C2)cc1 (configuration not stated)
22,693,COc1ccccc1N1CCN(C(=O)C2CC(=O)N(c3ccc4oc(C)nc4c3)C2)CC1 (configuration not stated)
23,635,O=C(c1cn(-c2cc(N3CCSCC3)ncn2)cn1)N1CCN(C2CCCCC2)CC1
24,638,Cc1ccc(C)c(NC(=O)N2CCC(n3c(C)nc4cccnc43)CC2)c1
25,724,CCCNC(=O)C1CCN(c2ccc(SCC(=O)Nc3cc(F)ccc3Cl)nn2)CC1
26,853,CCOc1ccc(C(=O)N2CCCN(c3cc(-c4ccc(Br)cc4)[nH]n3)CC2)cc1OCC
27,1030,CCOc1ccc(-c2nc(CSCC(=O)NCc3cccs3)c(C)o2)cc1
28,727,O=C(c1ccco1)N1CCN(C(=O)c2c3c(nc4ccccc24)C(=O)N(C2CCCCC2)C3)CC1

# Second part, the molecule before the results:
row,SMILES,RP-LC retention time [s]
1,O=C1COc2cc(S(=O)(=O)N3CCCC3C(=O)Nc3ccc4c(c3)OCCO4)c(Cl)cc2N1 (configuration not stated),734
2,CCOC(=O)c1cc[nH]c1CC(=O)NC,672
3,O=C(COc1ccccc1Cl)Nc1cncc(-c2nc3ccccc3o2)c1,995
4,CC1CCc2nc3ncn(CC(=O)NC(C)c4ccccc4)c(=O)c3cc2C1 (configuration not stated),762
5,C[C@@H]1c2ccccc2CCN1C(=O)c1ccccc1F,919
6,O=C(Nc1cccc(Cl)c1)c1nn2c(C(F)(F)F)cc(-c3ccco3)nc2c1Cl,1230
7,CCc1nc2cc(-c3noc(-c4c(F)cccc4Cl)n3)ccc2o1,1190
8,O=C(NCc1ccccn1)c1c2c(nc3ccccc13)C(=O)N(C1CCCCC1)C2,626
9,CS(=O)(=O)N1CCC(C(=O)Nc2ccc3cn[nH]c3c2)CC1,588
10,Nc1ccccc1NC(=O)CCCCCC(=O)Nc1ccccc1,683
11,Cc1c2cnn(-c3ccccc3)c(=O)c2c(C)n1C(C)C(=O)NCCN1CCOCC1 (configuration not stated),607
12,O=C(Cc1cccc(C(F)(F)F)c1)Nc1cccn2cnnc12,744
13,COc1ccc(Cn2nnc(C(=O)NCC3CC3)c2-n2cccc2)cc1,924
14,O=C(NCc1ccccc1)C1=C2CCCN2c2ccccc2S1(=O)=O,810
15,CCn1cnnc1CC1CCN(S(=O)(=O)Cc2ccccc2F)C1 (configuration not stated),658
16,O=C(CN1c2ccc(F)cc2-c2ccccc2S1(=O)=O)Nc1cccnc1,681
17,Brc1cccc(-c2noc(CSc3nccn3-c3ccccc3)n2)c1,1020
18,Cc1nnsc1C(=O)Nc1nnc(-c2ccnn2C)o1,665
19,CC(C)N1CCC(c2nnc3n2CCN(S(=O)(=O)c2ccccc2C(F)(F)F)C3)C1 (configuration not stated),631
20,O=C(COc1ccc(F)cc1)N1CCN(Cc2noc3ccccc23)CC1,726

row,SMILES,RP-LC retention time [s]
1,CCCN(CC1CCOC1)C(=O)Nc1cccc(Cl)c1F (configuration not stated),853
2,Cn1c(C2CCN(S(=O)(=O)c3ccccc3Cl)CC2)cc(=O)n2nccc12,708
3,Cc1nn(-c2ccc3nnc(C)n3n2)c(C)c1CCC(=O)NCCc1c[nH]c2ccccc12,726
4,CC(C)n1cc(CN2CCCCCNC(=O)[C@@H]3CCC[C@@H]32)c2ccccc21,701
5,O=C(CCCSc1ccc(F)cc1)Nc1nnc(Cc2ccc3c(c2)OCO3)o1,807
6,Cc1ccc(CNC(=O)c2nnc(-c3ccc(S(=O)(=O)N(C)C)cc3)o2)o1,826
7,O=C(Nc1ccc2c(c1)OCCO2)C1CCCN(S(=O)(=O)Cc2ccccc2Cl)C1 (configuration not stated),968
8,CN1C(=O)c2cccn2CC1CNC(=O)Nc1ccc2c(c1)OCCO2 (configuration not stated),624
9,COC(=O)c1cc(C2CC2)nc2c1c(=O)n(Cc1ccccc1)c(=O)n2C,1030
10,Cc1cc(C)n(CCNC(=O)NCc2cccs2)n1,593
11,Nc1nc(-c2ccc(S(=O)(=O)N3CCOCC3)cc2)cs1,620
12,OC1(c2ccccc2)CN(c2ccccc2)C2=[N+]1CCS2 (configuration not stated),551
13,CCc1nn2c(CNC(=O)c3ccn(CC)n3)c(-c3ccccc3)nc2s1,822
14,Cc1ccccc1Nc1c(-c2cccc(Cl)c2)nc2ccccn12,787
15,CC1=NS(=O)(=O)N(C)C=C1C(=O)OCc1cc(F)cc(F)c1,934
16,Cn1nc(-c2nc(C3CC3)no2)c2c1CCN(S(=O)(=O)c1cccc(Cl)c1)C2,1000
17,Cn1nc(N)c2ncc(C(Cl)(Cl)Cl)nc21,876
18,COCCC1(N(C)C)CCN(S(=O)(=O)c2ccc(C#N)cc2)CC1,613
19,CCC(CC)NC(=O)C1CCN(c2cn[nH]c(=O)c2)CC1,604

# From the METLIN SMRT retention time set (Domingo-Almenara et al. 2019)
